The test system of data set [1] is ConA-induced T murine splenic lymphocytes. Kind of data set: ConA-induced T-cell (splenic lymphocyte) proliferation, CCK-8. Particulars: Mus musculus, 48 h, read-out: IC50 ConA-Induced T-Cell Proliferation. The data set is classed as cell-based, BALB/c mice. The protocol: (§1) The isolated compounds (1–8) were evaluated for their immunosuppressive activities against the proliferation of ConA-induced T and LPS-induced B murine splenic lymphocytes, according to previously described protocols. […] The cytotoxicity of immunosuppressive Compounds 2 and 4–6 was tested in murine splenocyte cultures for 72 h using the tetrazolium salt-based CCK-8 assay. […] Thus, we selected this particular cytochalasin for the mechanism of action studies.
(§2) Spleen cells were collected from BALB/c mice under aseptic conditions, plated in a 96-well plate at a density of 1.5 × 10^6 cells/well and activated by Con A (5 μg/mL) or LPS (10 μg/mL) in the presence of various concentrations of compounds or cyclosporine A (CsA) at 37 °C and 5% CO2 for 48 h. Then, 20 μL CCK-8 was added to each well, 4 h before the end of the incubation. Absorbance at OD450 was measured on an ELISA reader, and the IC50 value was calculated from the correlation curve between the compound concentration and the OD450.

Data set [2] deals with LPS-induced B murine splenic lymphocytes. Kind of data set: LPS-induced B-cell (splenic lymphocyte) proliferation, CCK-8. To be noted: Mus musculus, 48 h, read-out: IC50 LPS-Induced B-Cell Proliferation. The format is cell-based, BALB/c mice. On the procedure:
as §1, §2

Data set [3] is described as follows: Cytotoxicity / cell viability in normal splenocytes, CCK-8, 72 h. The format is cell-based, BALB/c mice. Particulars: BALB/c, mouse, mean ± SD (n = 7), read-out: Cytotoxicity IC50, murine splenocytes. On the procedure:
as §1
(§3) Cell viability was evaluated using the CCK-8 method. Spleen cells were plated in a 96-well plate at a density of 1.5 × 10^6 cells/well. Then, the cells were incubated with various concentrations of compounds or 0.1% DMSO at 37 °C and 5% CO2 for 72 h. Proliferation was measured using the CCK-8 assay, as described above. Cyclosporin A (CsA) and cytochalasin D were used as positive controls.

For a further data set, the target named is calcineurin (CN) (Homo sapiens, UniProt P63098+Q08209). Kind of data set: CN phosphatase assay (p-NPP substrate, spectrophotometric). The format is biochemical. To be noted: 20 mM p-NPP substrate, pH 7.4; read-out: IC50 calcineurin (CN) inhibition. On the procedure:
A spectrophotometric assay was used to determine the activities of CN with 20 mM p-nitrophenyl phosphate (p-NPP) as the substrate in 1 mM CaCl2, 0.5 mM MnCl2, 2 mM CaM, 2 mM CNB, 1 mM DTT, 0.1 mg/mL bovine serum albumin (BSA), and 50 mM Tris-HCl (pH 7.4) at 4 °C. The reaction was initiated by the addition of CNA, various concentrations of compounds (6.25, 12.5, 25, 50 or 100 μM) were added, and the solution was preincubated for 10 min at 4 °C. The OD410 value was measured, and the inhibitory concentration (IC50) was calculated. DMSO (2%) was used as a vehicle control. CsA was used as a positive control.

The subject of a further data set is NFAT1 dephosphorylation. Kind of data set: Western blot of ConA-stimulated NFAT1 / NFAT-P in splenocytes. The data set is classed as cell-based, BALB/c mice. To be noted: 50 μM. On the procedure:
(§4) The effect of 2 on ConA-stimulated NFAT1 and NFAT-P expression was determined by Western blotting. […] In contrast, in the ConA-stimulated cells in the absence of 2, the dephosphorylated form of NFAT1 was detected, as well as the phosphorylated form. […] After 48 h of stimulation with 5 μg/mL Con A, the fluorescent NFAT1 translocated to the nucleus. […] In addition, 2 formed hydrophobic interactions with residues ILE-436, ILE-474, ARG-477, VAL-490, and VAL-498 and intermolecular interactions with residues THR-126, GLN-127, ASP-313, and PRO-340. Therefore, the immunosuppressive activity of 2 is possibly, at least in part, mediated via CaN/NFAT signaling pathway-regulated Con A-stimulated activation of splenocytes (Figure 7), highlighting its potential for use as an effective noncytotoxic natural immunosuppressant.
Splenocytes were washed with PBS and lysed in PMSF lysate. After centrifugation at 12,000 rpm for 5 min, the protein concentration was determined using a BSA Protein Assay Kit. Protein lysates were separated using 10% sodium dodecyl sulfate–polyacrylamide gel electrophoresis (SDS–PAGE) and transferred to polyvinylidene difluoride (PVDF) membranes. After blocking, the membranes were incubated overnight with the respective primary antibodies against NFAT1, NFAT-P, and β-actin in 5% BSA, and the secondary antibody was horseradish peroxidase (HRP)-conjugated goat anti-rabbit IgG. […]
On the technique in general: In western blotting, separated proteins are transferred to a membrane and probed.

The test system of a further data set is NFAT1 translocation. The data set is described as follows: Immunofluorescence of NFAT1 nuclear translocation in ConA-stimulated splenocytes. The format is cell-based, BALB/c mice. To be noted: Con A 5 μg/mL, 48 h. The protocol: as §4
Splenocytes were seeded in a 24-well plate at a density of 5 × 10^6 cells/well, incubated with various concentrations of Compound 2 or CsA, and then activated by culturing with Con A (5 μg/mL) for 48 h. After treatment, the cells were fixed with 4% paraformaldehyde for 30 min, permeabilized in 0.5% Triton X-100 for 15 min, blocked with 5% BSA for 1 h, and then incubated overnight in the respective primary antibody; NFAT1 (D43B1) XP® Rabbit antibody was used at a 1:100 dilution in PBS. The corresponding fluorescent anti-rabbit IgG (H+L) secondary antibody was added for 1 h. […]

The next data set concerns IL-2 mRNA. The data set is described as follows: IL-2 mRNA expression by real-time quantitative PCR in ConA-stimulated splenocytes. Particulars: q-PCR, 48 h. The data set is classed as cell-based, BALB/c mice. The protocol: as §4
The obtained total RNA (2 µg) was used for cDNA synthesis with a Servicebio®RT First Strand cDNA Synthesis Kit with random primers, according to the manufacturer’s instructions. qPCR was performed ith SYBR Green qPCR Master Mix (High ROX) using ABI StepOne Plus Real-time Detection System and β-actin as internal control. […] The expression levels of genes were normalized to the expression of β-actin mRNA and analyzed using the delta-delta CT method (2^−ΔΔCT).

The next data set has as its system IL-2. Kind of data set: IL-2 ELISA of culture supernatants of ConA-stimulated splenocytes. The data set is classed as cell-based, BALB/c mice. On the procedure: as §4
Splenocytes were treated as described in the RT–qPCR section, and then the IL-2 levels in the obtained culture supernatants were measured using an enzyme-linked immunosorbent assay (ELISA) kit, according to the manufacturer’s instructions. Cytokine standard curves were used to calculate the amount of IL-2, and the absorbance of each well was read at OD450 using an ELISA reader.
(In general: An ELISA detects its analyte on a solid surface through an enzyme-linked reagent.)

Another data set relates to murine splenocytes. Kind of data set: Cytotoxicity / cell viability in normal splenocytes, CCK-8, 72 h. The format is cell-based, BALB/c mice. To be noted: mean ± SD (n = 7). The protocol:
as §1, §3

9 molecules from publication PMC9409992, “Immunosuppressive Cytochalasins from the Mangrove Endophytic Fungus Phomopsis asparagi DHS-48” (Marine Drugs, 2022) can be followed below.

Where two headings read alike, the source gives them in different places.

Sequence of calcineurin (CN) (P63098 whole entry, other chains not shown): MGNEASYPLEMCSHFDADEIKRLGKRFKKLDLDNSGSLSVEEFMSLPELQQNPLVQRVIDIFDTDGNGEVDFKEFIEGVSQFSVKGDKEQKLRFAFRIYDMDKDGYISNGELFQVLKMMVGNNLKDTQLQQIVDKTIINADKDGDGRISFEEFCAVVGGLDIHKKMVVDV

As to `C=C1C(C)C2C(Cc3ccccc3)NC(=O)C23C(O)C2C=C(C)CC(C)CC4OC1C3C42` (stereo not drawn) [Compound 1, Phomoparagin A], the IC50 in data set [1] and in data set [2] was above 200 µM each time.

As for `C=C1C(C)C2C(Cc3ccccc3)NC(=O)C23C(OC(C)=O)C2C=C(C)CC(C)CC(O)C2C3C1O` (stereo not drawn) [Compound 2, Phomoparagin B], the figures for the IC50 (in [1]; in [2]; at calcineurin (CN)) were 21.6 ± 1.7 µM, 78.5 ± 1.3 µM and 17.9 ± 0.4 µM, respectively. Moreover, the IC50 at 72 h in data set [3] was found to be 111.7 ± 1.1 µM. Moreover, the “Effect on ConA-stimulated dephosphorylation of NFAT” value with NFAT1 dephosphorylation is listed as “strongly inhibited the dephosphorylation of NFAT”. Moreover, in the data set on NFAT1 translocation, the “Effect on Con A-stimulated translocation of NFAT1 from cytoplasm to nucleus” value is reported as “blocked the Con A-stimulated translocation of NFAT1 from the cytoplasm to the nucleus in a dose-dependent manner”. For the same molecule, the “Transcription level of Con A-stimulated IL-2 mRNA” value in the data set with IL-2 mRNA is “decreased with increasing concentrations of 2”. Also, in the data set on IL-2, the “IL-2 protein level (secretion)” value is given as “confirmed the effects of 2 at the IL-2 protein level”.

As for `C=C1C(C)C2C(Cc3ccccc3)NC(=O)C23C=C2C=C(C)CC(C)CC(O)C2C3C1O` (stereo not drawn) [Compound 3, Phomoparagin C], the IC50 in data set [1] and in data set [2] was above 200 µM each time.

Regarding `C=C1C(C)C2C(Cc3ccccc3)NC(=O)C23C(O)C2C=C(C)CC(C)CC(O)C2C3C1O` (stereo not drawn) [Compound 4, phomopchalasin A], the IC50 amounted to 32.8 ± 2.4 µM in data set [1] and 145 ± 2.2 µM in [2]. Moreover, the IC50 at 72 h in [3] is 373.7 ± 3.3 µM.

`C=C1C(C)C2C(Cc3ccccc3)NC(=O)C23C(O)C(O)C2C(C)=CC(C)CC4OC1C3C42` (stereo not drawn) [Compound 5, phomopchalasin B]: the IC50 in [1] is 31.2 ± 2.5 µM; in [2] it was 154.4 ± 0.4 µM. In addition, the IC50 at 72 h in data set [3] is 84.4 ± 0.3 µM.

Turning to `C=C1C(C)C2C(Cc3ccccc3)NC(=O)C23C(OC(C)=O)C=CC(C)(O)CC(C)CC=CC3C1O` (stereo not drawn) [Compound 6, cytochalasin H], the values for the IC50 (in [1]; in data set [2]; with murine splenocytes) were 11.2 ± 0.3 µM, 103 ± 1.1 µM and 42.2 ± 1.7 µM, respectively. The IC50 at 72 h in [3] is 42.2 ± 1.7 µM.

As for `C=C1C(C)C2C(Cc3ccccc3)NC(=O)C23C(O)C=CC(C)(O)CC(C)CC=CC3C1O` (stereo not drawn) [Compound 7, cytochalasin J], the IC50 is above 200 µM in data set [1] (Con A 5 μg/mL, CCK-8, mean ± SD, three experiments) and above 200 µM in [2] (LPS 10 μg/mL, CCK-8, mean ± SD, three experiments).

Regarding `C=C1C(C)C2C(Cc3ccccc3)NC(=O)C23C(=O)C=CC(C)(O)CC(C)CC=CC3C1O` (stereo not drawn) [Compound 8, fragiformin B], the IC50 in data set [1] and in data set [2] was above 200 µM in each case.

For `C=C1[C@@H](C)[C@H]2[C@H](Cc3ccccc3)NC(=O)[C@]23[C@H](OC(C)=O)/C=C/[C@@](C)(O)C(=O)[C@@H](C)C/C=C/[C@H]3[C@@H]1O` [Cytochalasin D, cytochalasin D, reference compound], in data set [3], the IC50 turned out to be 1000 nM.
